Target: T1, Human PTP1B (1-321) (Homo sapiens, UniProt P18031)
T1 construct: Human PTP1B (1-321) was cloned from a human cDNA library; made in house; host or cells: E. coli
T1 sequence (P18031 1-321): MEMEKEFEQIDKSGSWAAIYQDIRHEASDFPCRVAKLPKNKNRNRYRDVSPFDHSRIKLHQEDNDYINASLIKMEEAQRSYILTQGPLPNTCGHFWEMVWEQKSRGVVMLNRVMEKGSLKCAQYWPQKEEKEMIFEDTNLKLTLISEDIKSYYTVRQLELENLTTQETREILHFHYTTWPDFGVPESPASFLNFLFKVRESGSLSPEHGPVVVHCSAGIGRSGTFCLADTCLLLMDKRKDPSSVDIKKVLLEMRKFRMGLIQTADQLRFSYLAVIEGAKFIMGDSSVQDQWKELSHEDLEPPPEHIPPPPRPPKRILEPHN
Test: In vitro inhibition of PTP1B (PTPase assay, Malachite Green / DiFMUP)
Assay type: biochemical
Details: read-out: IC50 (μM), PTP1B inhibitory activity
Protocol: Human PTP1B (1-321) was cloned from a human cDNA library using conventional molecular biology techniques. The cDNA sequence was identical to the published human PTP1B sequence (Accession number M33689). The protein was expressed and purified from E. coli as described by Barford D. et.al, J. Mol Biol (1994) 239,726-730).
The measurement of PTPase activity was carried out using one of two methods:
The first method for the measurement of PTP1B inhibitory activity a tyrosine phosphorylated peptide based on the amino acid sequence of insulin receptor tyrosine autophosphorylation site 1146 (TRDI(pY)E) was used as substrate. The reaction conditions were as follows:
PTP1B (0.5-2nM ) was incubated with compound for 15 min in buffer containing 37.5 mM Bis-Tris buffer pH 6.2, 140 mMNaCl, 0.05% BSA and 2 mM DTT. The reaction was started by the addition of 50 μM substrate. After 20 min at room temperature (22-25° C.) the reaction was stopped with KOH and the amount of free phosphate measured using Malachite Green as previously described. (Harder et al. 1994 Biochem J. 298; 395).
The second method was used for the measurement of general PTPase inhibitory activity across a panel of PTPases the substrate (6,8-difluoro-4-methylumbelliferyl phosphate (DiFMUP; from Molecular Probes) was used at the Km for each enzyme. The buffer conditions were identical as in the Malachite Green assay. The reaction was stopped with KOH. In this case the dephosphoryated product becomes fluorescent and the fluorescence read. (Excitiation: […]/Emmission: 460 nM).

Row | IC50 [µM] | Structure (SMILES)
1 | 29.2 | Nc1nc(N)c2c(cc(-c3ccc(Cl)s3)c3[nH]ccc32)n1 [Example 6, 6-(5-Chloro-thiophen-2-yl)-7H-pyrrolo[3,2-f]quinazoline-1,3-diamine]
2 | 24.1 | Nc1cccc(-c2cc3nc(N)nc(N)c3c3cc[nH]c23)c1 [Example 8, 6-(3-Amino-phenyl)-7H-pyrrolo[3,2-f]quinazoline-1,3-diamine]
3 | 23.8 | CCOc1cccc(-c2cc3nc(N)nc(N)c3c3cc[nH]c23)c1 [Example 2, 6-(3-Ethoxy-phenyl)-7H-pyrrolo[3,2-f]quinazoline-1,3-diamine]
4 | 89.5 | Nc1nc(N)c2c(cc(-c3cccc([N+](=O)[O-])c3)c3[nH]ccc32)n1 [Example 4, 6-(3-Nitro-phenyl)-7H-pyrrolo[3,2-f]quinazoline-1,3-diamine]

Reference: patent publication US7262297B2, “Diaminopyrroloquinazolines compounds as protein tyrosine phosphatase inhibitors” (Hoffmann-La Roche Inc., priority 2003, dated 2007)
